The values below come from US20250353891A1 (MEDIMMUNE LIMITED, priority 2022, published 2025).

Where two headings read alike, the source gives them in different places. Starred links: 1 amine or outer side, 2 acyl side, 3 side chain; linkers in the order of their positions; H or OH if unused. Non-standard residues stand in square brackets, D forms with d. Residues, ends and D or L forms follow the SMILES beside them. Groups on a side chain read outwards from the residue. *: point of attachment. Trp(1-Me) = Cn1cc(C[C@H](N)C(=O)O)c2ccccc21; C18 diacid = O=C(O)CCCCCCCCCCCCCCCCC(=O)*; PEG8 = NCCOCCOCCOCCOCCOCCOCCOCCOCCC(=O)O; Dip = N[C@H](C(=O)O)C(c1ccccc1)c1ccccc1; γGlu = O=C(O)[C@H](CCC(=O)[*:2])N[*:1]; Stearoyl = CCCCCCCCCCCCCCCCCC(=O)*; αMeF = C[C@](N)(Cc1ccccc1)C(=O)O; AEEA = NCCOCCOCC(=O)O; Aib = CC(C)(N)C(=O)O

Experiment [1] deals with human GLP-1 receptor (hGLP-1R) (Homo sapiens, UniProt P43220). Nature of the experiment: cAMP production (HTRF) in CHO cells expressing hGLP-1R. The format is cell-based. Also on record: expressed in transfected cells. The settings on record: for EC50: cAMP in CHO hGLP-1R cells, geometric mean, read-out: hGLP-1R EC50; for % Relative Potency Ratio: % GLP-1R activity relative to GLP-1 / % GlucR activity relative to glucagon. Put shortly:
(§1)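 Read-out: HTRF cAMP (anti-cAMP cryptate donor, cAMP-d2 acceptor in conjugate/lysis buffer), converted to % Delta F and fitted by 4-parameter logistic for EC50. Cell densities were 1×10^5 cells/mL (hGLP-1R) or 2×10^5 cells/mL (hGCGR). Stimulation lasted 30 min at room temperature.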

For experiment [2], the target named is human glucagon receptor (hGCGR) (Homo sapiens, UniProt P47871). Briefly: cAMP production (HTRF) in CHO cells expressing hGCGR. As to conditions: cAMP in CHO hGCGR cells, geometric mean, read-out: hGluc-R EC50. Also noted: expressed in transfected cells. The format is cell-based. In outline: as §1
On the technique in general: cAMP levels reflect the balance of adenylyl cyclase and phosphodiesterase activity.

The mark [3] stands for this setting: Table 6, peptides modified at position 17.
The mark [4] stands for this setting: Table 7, peptides modified at position 20.

human glucagon receptor (hGCGR), sequence (P47871 26-477): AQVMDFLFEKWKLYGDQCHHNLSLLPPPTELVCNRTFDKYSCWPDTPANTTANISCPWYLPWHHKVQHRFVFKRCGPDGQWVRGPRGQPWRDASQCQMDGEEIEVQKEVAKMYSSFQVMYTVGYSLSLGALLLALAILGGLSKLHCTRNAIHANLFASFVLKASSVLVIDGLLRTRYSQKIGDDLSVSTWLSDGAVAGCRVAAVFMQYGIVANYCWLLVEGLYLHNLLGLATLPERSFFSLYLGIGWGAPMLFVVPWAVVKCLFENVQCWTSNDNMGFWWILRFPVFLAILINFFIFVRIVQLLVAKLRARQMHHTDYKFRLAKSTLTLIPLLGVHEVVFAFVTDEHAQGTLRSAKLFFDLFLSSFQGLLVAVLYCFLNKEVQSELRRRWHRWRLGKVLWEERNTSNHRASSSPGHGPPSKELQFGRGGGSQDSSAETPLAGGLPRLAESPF
human GLP-1 receptor (hGLP-1R), sequence (P43220 24-463): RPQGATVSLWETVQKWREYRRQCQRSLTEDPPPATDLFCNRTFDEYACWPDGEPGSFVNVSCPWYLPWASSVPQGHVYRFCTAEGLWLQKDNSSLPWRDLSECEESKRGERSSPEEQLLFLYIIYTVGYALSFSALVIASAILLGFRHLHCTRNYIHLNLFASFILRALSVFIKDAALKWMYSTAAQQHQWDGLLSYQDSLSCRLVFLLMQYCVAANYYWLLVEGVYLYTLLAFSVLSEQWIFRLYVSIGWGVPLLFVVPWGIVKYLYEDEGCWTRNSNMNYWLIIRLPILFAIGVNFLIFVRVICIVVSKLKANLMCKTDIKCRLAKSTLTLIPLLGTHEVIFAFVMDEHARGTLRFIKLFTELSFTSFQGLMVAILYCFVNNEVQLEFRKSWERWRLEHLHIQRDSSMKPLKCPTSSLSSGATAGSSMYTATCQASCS

Broadly, the EC50 is the concentration giving half of the maximal effect. `CC(C)C[C@H](NC(=O)[C@H](Cc1c[nH]c2ccccc12)NC(=O)[C@H](CCCNC(=N)N)NC(=O)[C@@H](NC(=O)[C@H](Cc1ccccc1)NC(=O)[C@H](CC(=O)O)NC(=O)[C@H](CCC(N)=O)NC(=O)[C@H](C)NC(=O)[C@H](CCCNC(=N)N)NC(=O)[C@H](CCCCNC(=O)COCCOCCNC(=O)COCCOCCNC(=O)CC[C@H](NC(=O)CCCCCCCCCCCCCCCCC(=O)O)C(=O)O)NC(=O)[C@H](CO)NC(=O)[C@H](CCC(=O)O)NC(=O)[C@H](CC(C)C)NC(=O)[C@](C)(Cc1ccccc1)NC(=O)[C@H](CCCCN)NC(=O)[C@H](CO)NC(=O)[C@@H](NC(=O)[C@H](CC(=O)O)NC(=O)[C@H](CO)NC(=O)[C@@H](NC(=O)[C@H](Cc1ccccc1)NC(=O)[C@@H](NC(=O)CNC(=O)[C@H](CCC(N)=O)NC(=O)C(C)(C)NC(=O)[C@@H](N)Cc1c[nH]cn1)[C@@H](C)O)[C@@H](C)O)C(C)C)C(C)C)C(=O)N[C@@H](CC(C)C)C(=O)NC(C)(C)C(=O)N[C@H](C(=O)N[C@@H](CCC(=O)O)C(=O)O)[C@@H](C)O` [Peptide 172] (H-H[Aib]QGTFTSDVSK[αMeF]LESK([AEEA-AEEA-γGlu-C18 diacid])RAQDFVRWLL[Aib]TE-OH; N-terminus assumed): the EC50 in experiment [1] (setting [3]) worked out at 0.213 nM; in experiment [2] (setting [3]), 1.27 nM. For the same molecule, in experiment [1] (Table 6), the “% Relative Potency Ratio” value is 11.8.

`CC[C@H](C)[C@H](NC(=O)[C@H](Cc1c[nH]c2ccccc12)NC(=O)[C@H](CCC(=O)O)NC(=O)[C@@H](NC(=O)[C@](C)(Cc1ccccc1)NC(=O)[C@H](CC(=O)O)NC(=O)[C@H](CCC(N)=O)NC(=O)[C@H](C)NC(=O)[C@H](C)NC(=O)[C@H](CCCCNC(=O)COCCOCCNC(=O)COCCOCCNC(=O)CC[C@H](NC(=O)CCCCCCCCCCCCCCCCC(=O)O)C(=O)O)NC(=O)[C@H](CO)NC(=O)[C@H](CC(=O)O)NC(=O)[C@H](CC(C)C)NC(=O)[C@](C)(Cc1ccccc1)NC(=O)[C@H](CCCCN)NC(=O)[C@H](CO)NC(=O)[C@@H](NC(=O)[C@H](CC(=O)O)NC(=O)[C@H](CO)NC(=O)[C@@H](NC(=O)[C@](C)(Cc1ccccc1)NC(=O)[C@H](CO)NC(=O)CNC(=O)[C@H](Cc1c[nH]cn1)NC(=O)C(C)(C)NC(=O)[C@@H](N)Cc1c[nH]cn1)[C@@H](C)O)C(C)C)C(C)C)C(=O)N[C@@H](C)C(=O)N[C@@H](CC(N)=O)C(N)=O` [Peptide 6] (H-H[Aib]HGS[αMeF]TSDVSK[αMeF]LDSK([AEEA-AEEA-γGlu-C18 diacid])AAQD[αMeF]VEWIAN-NH2; N-terminus assumed): the figures for the EC50 in experiment [1] (setting [3]) and in experiment [2] (setting [3]) were 0.568 nM and 0.516 nM, respectively. Moreover, in experiment [1] (Table 6), the “% Relative Potency Ratio” value is reported as 1.8.

Turning to `CC[C@H](C)[C@H](NC(=O)C(C)(C)NC(=O)[C@H](CCC(N)=O)NC(=O)[C@@H](NC(=O)[C@H](Cc1ccccc1)NC(=O)[C@H](CC(=O)O)NC(=O)[C@H](CCCCNC(=O)COCCOCCNC(=O)COCCOCCNC(=O)CC[C@H](NC(=O)CC[C@H](NC(=O)CCCCCCCCCCCCCCCCC(=O)O)C(=O)O)C(=O)O)NC(=O)[C@H](C)NC(=O)[C@H](C)NC(=O)[C@H](CCCNC(=N)N)NC(=O)[C@H](CO)NC(=O)[C@H](CC(=O)O)NC(=O)[C@H](CC(C)C)NC(=O)[C@](C)(Cc1ccccc1)NC(=O)[C@H](CCCCN)NC(=O)[C@H](CO)NC(=O)[C@@H](NC(=O)[C@H](CC(=O)O)NC(=O)[C@H](CO)NC(=O)[C@@H](NC(=O)[C@](C)(Cc1ccccc1)NC(=O)[C@H](CO)NC(=O)CNC(=O)[C@H](Cc1c[nH]cn1)NC(=O)C(C)(C)NC(=O)[C@@H](N)Cc1c[nH]cn1)[C@@H](C)O)C(C)C)C(C)C)C(=O)N[C@@H](C)C(=O)N[C@@H](CC(N)=O)C(=O)N[C@H](C(=O)NCC(N)=O)[C@@H](C)O` [Peptide 236] (H-H[Aib]HGS[αMeF]TSDVSK[αMeF]LDSRAAK([AEEA-AEEA-γGlu-γGlu-C18 diacid])DFVQ[Aib]IANTG-NH2), the EC50 was 0.0221 nM in experiment [1] (setting [4]) and 0.215 nM in experiment [2] (setting [4]). The “% Relative Potency Ratio” value in experiment [1] (Table 7) was 19.2.

As for `CCCCCCCCCCCCCCCCCC(=O)N[C@@H](CCC(=O)N[C@@H](CCC(=O)NCCOCCOCCOCCOCCOCCOCCOCCOCCC(=O)NCCCC[C@H](NC(=O)[C@H](CO)NC(=O)[C@H](CC(=O)O)NC(=O)[C@H](CC(C)C)NC(=O)[C@@H](NC(=O)[C@H](CCCCN)NC(=O)[C@H](CO)NC(=O)[C@@H](NC(=O)[C@H](CC(=O)O)NC(=O)[C@H](CO)NC(=O)[C@@H](NC(=O)[C@](C)(Cc1ccccc1)NC(=O)[C@H](CO)NC(=O)CNC(=O)[C@H](CCC(N)=O)NC(=O)[C@H](CO)NC(=O)[C@@H](N)Cc1c[nH]cn1)[C@@H](C)O)C(C)C)C(c1ccccc1)c1ccccc1)C(=O)N[C@@H](C)C(=O)N[C@@H](C)C(=O)N[C@@H](CCC(N)=O)C(=O)N[C@@H](CC(=O)O)C(=O)N[C@@](C)(Cc1ccccc1)C(=O)N[C@H](C(=O)N[C@@H](CCC(=O)O)C(=O)NC(C)(C)C(=O)N[C@H](C(=O)N[C@H](C(=O)N[C@@H](CC(N)=O)C(=O)N[C@H](C(N)=O)[C@@H](C)O)[C@@H](C)CC)[C@@H](C)CC)C(C)C)C(=O)O)C(=O)O` [Peptide 57] (H-HSQGS[αMeF]TSDVSK[Dip]LDSK([PEG8-γGlu-γGlu-Stearoyl])AAQD[αMeF]VE[Aib]IINT-NH2; N-terminus assumed), the EC50 in experiment [1] (setting [3]) was determined as 0.00909 nM; in experiment [2] (setting [3]), 0.0169 nM. The “% Relative Potency Ratio” value in experiment [1] (Table 6) is 3.7.

Regarding `CC(C)C[C@H](NC(=O)[C@H](Cc1cn(C)c2ccccc12)NC(=O)[C@H](CCCNC(=N)N)NC(=O)[C@@H](NC(=O)[C@H](Cc1ccccc1)NC(=O)[C@H](CC(=O)O)NC(=O)[C@H](CCC(N)=O)NC(=O)[C@H](C)NC(=O)[C@H](CCCNC(=N)N)NC(=O)[C@H](CCCCNC(=O)COCCOCCNC(=O)COCCOCCNC(=O)CC[C@H](NC(=O)CCCCCCCCCCCCCCCCC(=O)O)C(=O)O)NC(=O)[C@H](CO)NC(=O)[C@H](CC(=O)O)NC(=O)[C@H](CC(C)C)NC(=O)[C@](C)(Cc1ccccc1)NC(=O)[C@H](CCCCN)NC(=O)[C@H](CO)NC(=O)[C@@H](NC(=O)[C@H](CC(=O)O)NC(=O)[C@H](CO)NC(=O)[C@@H](NC(=O)[C@H](Cc1ccccc1)NC(=O)[C@@H](NC(=O)CNC(=O)[C@H](CCC(N)=O)NC(=O)C(C)(C)NC(=O)[C@@H](N)Cc1c[nH]cn1)[C@@H](C)O)[C@@H](C)O)C(C)C)C(C)C)C(=O)N[C@@H](CC(C)C)C(=O)NC(C)(C)C(=O)N[C@@H](CCC(=O)O)C(=O)O` [Peptide 433] (H-H[Aib]QGTFTSDVSK[αMeF]LDSK([AEEA-AEEA-γGlu-C18 diacid])RAQDFVR[Trp(1-Me)]LL[Aib]E-OH; N-terminus assumed), the EC50 was 4.46 nM in experiment [1] (setting [3]) and 10.5 nM in experiment [2] (setting [3]). Moreover, in experiment [1] (Table 6), the “% Relative Potency Ratio” value is 4.6.
